The values below come from patent US11786494B2, “Methods of modulation of branched chain acids and uses thereof” (Baylor College of Medicine, priority 2009, dated 2023).

The test system of series [1] is E1α-phospho/E1α, E2, BCATm, BCATc. Put plainly: Western blotting of BCKD complex and BCAT isozymes in lymphoblast cells. In kind it is cell-based, human. Conditions: for phosphorylation state of E1α: CIC 1 mM 2 h alone, or together with phenylbutyrate.
The target of series [2] is branched-chain alpha-keto acid dehydrogenase kinase (BDK) (Homo sapiens, UniProt O14874). The following applies: Harris et al., 1982; cited from earlier work.
Series [3] deals with T1, BCKDC (Homo sapiens, UniProt P12694+P21953).
T1 sequence (P12694 46-445): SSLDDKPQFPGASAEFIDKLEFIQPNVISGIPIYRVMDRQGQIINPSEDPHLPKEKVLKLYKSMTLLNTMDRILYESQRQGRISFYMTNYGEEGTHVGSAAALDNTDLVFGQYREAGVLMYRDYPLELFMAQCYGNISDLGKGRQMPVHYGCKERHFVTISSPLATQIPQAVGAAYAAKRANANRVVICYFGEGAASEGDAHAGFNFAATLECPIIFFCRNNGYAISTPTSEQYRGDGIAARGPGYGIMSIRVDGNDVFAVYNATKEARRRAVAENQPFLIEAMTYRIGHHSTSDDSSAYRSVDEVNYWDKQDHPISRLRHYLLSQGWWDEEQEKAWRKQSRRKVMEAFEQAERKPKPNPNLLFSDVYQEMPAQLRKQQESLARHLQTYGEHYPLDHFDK
T1 sequence (P21953 51-392): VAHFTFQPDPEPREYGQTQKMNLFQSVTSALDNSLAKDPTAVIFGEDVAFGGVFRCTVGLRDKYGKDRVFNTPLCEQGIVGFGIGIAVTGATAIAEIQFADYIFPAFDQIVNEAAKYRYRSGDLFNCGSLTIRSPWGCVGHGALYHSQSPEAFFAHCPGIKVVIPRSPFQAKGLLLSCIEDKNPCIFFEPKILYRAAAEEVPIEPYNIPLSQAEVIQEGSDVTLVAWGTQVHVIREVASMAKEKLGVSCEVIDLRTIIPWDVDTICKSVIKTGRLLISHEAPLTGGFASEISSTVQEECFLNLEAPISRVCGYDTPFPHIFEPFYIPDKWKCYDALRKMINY
Put plainly: Leucine oxidation in lymphoblast cells in presence of CIC. In kind it is cell-based. Details: Transformed lymphoblast cell lines were available from all 5 MSUD patients and from 2 controls to measure BCKDC activity; endogenous in cells. Conditions: both control cells, CIC 1 mM. Here is the method:
FIGS. 8A-8C. FIGS. 8A and 8B show leucine oxidation in presence of CIC in lymphoblast cells from control subjects (C-660, C-661) and MSUD patients (P-1, -2, -3, -4, -5) untreated or treated with 1 mM phenylbutyrate for 48 h. Leucine oxidation was measured by using radioactive assay as described in Materials and Methods and is expressed in pmol CO2 released/min/mg protein. CIC was added to all reactions in 1 mM concentration. Values are means±SD (n=3), * p≥0.05, **p≥0.01. […] Images are representative of two independent experiments.
Because phenylbutyrate affects E1α phosphorylation state in vivo (see FIG. 5), leucine oxidation was measured in the same cell lines as in FIG. […] with CIC in the assay. […] Changes in BCAT isoenzyme activity also impacts BCKA production, in specific cases. All patient cell lines accumulated more KIC than observed in control cell lines.

For series [4] the following is noted: cited from earlier work; for time to peak concentration: metabolites after a dose of 5 g of phenylbutyrate; for mean peak concentration: metabolites after oral dosing of phenylbutyrate; for elimination half-life: oral phenylbutyrate, estimated.
Substrate in series [5]: O=C(O)CCCc1ccccc1
Briefly: E1 catalyzed decarboxylase activity (DCPIP assay). In kind it is biochemical. Conditions: other: E1 catalyzed decarboxylase activity, [+] Phenylbutyrate. The protocol:
(§1) To determine the effect of phenylbutyrate on individual BCAA catabolic enzymes, activities of mitochondrial branched chain amino transferase (BCATm) and BCKDC enzymes were measured with and without phenylbutyrate using purified recombinant enzymes. BCATm generates the BCKA products that are elevated in MSUD and are the substrates for BCKDC. BCATm activity was measured at pH 8.0 and 298 K as described in Example 2. Kinetics of the E1 decarboxylase reaction with and without phenylbutyrate were determined in the presence of an artificial electron acceptor 2, 6-dichlorophenolindophenol (DCPIP). The assay mixture contained 100 mM potassium phosphate, pH 7.5, 2.0 mM MgCl2, 0.2 mM thiamin diphosphate (ThDP) and 0.1 mM DCPIP. The rate of decarboxylation at 30° C. was measured by monitoring the reduction of the dye at 600 nm (24, 25). For the overall BCKDC activity assay, the enzymes were exchanged into phosphate buffer (30 mM potassium phosphate, pH 7.5) containing 5 mM DTT using a PD-10 column and the enzyme concentrations were calculated from the absorption maxima at 280 nm. The protein complex was reconstituted with E1, lipoylated E2 (lip-E2) and E3 at a molar ratio of 12:1:55, in which lip-E2 exists as a 24-mer. The assay mixture contained 30 mM potassium phosphate pH 7.5, 100 mM NaCl, 3 mM NAD^+, 0.4 mM CoA, 2 mM MgCl2, 2 mM DTT, 0.1% Triton X-100, and 2 mM ThDP. The overall reaction was monitored by formation of NADH at 340 nm. The apparent rate constants (kapp) at different substrate concentrations for all of the above assays were determined from the absorption changes at the individual wavelength maximum. The kapp rate constants were fit using the following equation: kapp=kcat[S]/(Km+[S])

Substrate in series [6]: O=C(O)CCCc1ccccc1
Briefly: Overall BCKDC activity assay (reconstituted E1, lip-E2, E3; NADH formation). In kind it is biochemical. Conditions: other: Activity of BCKDC, [+] Phenylbutyrate. The protocol: as §1

Setting [7] is: substrate α-ketoisocaproate (KIC).
The mark [8] stands for this setting: substrate α-ketoisovalerate (KIV).

Usually Km stands for the substrate concentration at which the rate is half of its maximum. The term kcat denotes the number of substrate molecules converted per active site and unit of time at saturation.

As to `CC(C)CC(Cl)C(=O)O` (stereo not drawn) [CIC, Alpha-chloroisocaproate], the “phosphorylation state of E1α” value in series [1] (both controls and patients 4 and 5) is on record as “decreases”; in series [1] (patients 1, 2 and 3), “no effect”. For the same molecule, the “E2 or BCAT isozyme levels” value in series [1] (lymphoblasts, CIC) is reported as “did not have any effect”. Further, the “inhibition of BDK” value in series [2] was “known inhibitor”. Also, in series [3], the “leucine oxidation activity in the presence of CIC vs alone” value was “higher activity”.

On to `O=C(O)Cc1ccccc1` [phenylacetate], for which, in series [4], the “time to peak concentration” value was “around 3.5 h”, the mean peak concentration was 45.3 µg/mL and the elimination half-life was 1.3 h.

Take `NC(=O)CC[C@H](NC(=O)Cc1ccccc1)C(=O)O` [phenylacetateglutamine]: in series [4], the “time to peak concentration” value is “around 3.5 h”, the mean peak concentration was 62.8 µg/mL and the elimination half-life was 2.4 h.

B1: E1 (unphosphorylated) of BCKDC (Homo sapiens) (protein)
chain 1: SSLDDKPQFPGASAEFIDKLEFIQPNVISGIPIYRVMDRQGQIINPSEDPHLPKEKVLKLYKSMTLLNTMDRILYESQRQGRISFYMTNYGEEGTHVGSAAALDNTDLVFGQYREAGVLMYRDYPLELFMAQCYGNISDLGKGRQMPVHYGCKERHFVTISSPLATQIPQAVGAAYAAKRANANRVVICYFGEGAASEGDAHAGFNFAATLECPIIFFCRNNGYAISTPTSEQYRGDGIAARGPGYGIMSIRVDGNDVFAVYNATKEARRRAVAENQPFLIEAMTYRIGHHSTSDDSSAYRSVDEVNYWDKQDHPISRLRHYLLSQGWWDEEQEKAWRKQSRRKVMEAFEQAERKPKPNPNLLFSDVYQEMPAQLRKQQESLARHLQTYGEHYPLDHFDK
chain 2: VAHFTFQPDPEPREYGQTQKMNLFQSVTSALDNSLAKDPTAVIFGEDVAFGGVFRCTVGLRDKYGKDRVFNTPLCEQGIVGFGIGIAVTGATAIAEIQFADYIFPAFDQIVNEAAKYRYRSGDLFNCGSLTIRSPWGCVGHGALYHSQSPEAFFAHCPGIKVVIPRSPFQAKGLLLSCIEDKNPCIFFEPKILYRAAAEEVPIEPYNIPLSQAEVIQEGSDVTLVAWGTQVHVIREVASMAKEKLGVSCEVIDLRTIIPWDVDTICKSVIKTGRLLISHEAPLTGGFASEISSTVQEECFLNLEAPISRVCGYDTPFPHIFEPFYIPDKWKCYDALRKMINY
For the molecule B1, the Km in series [5] (with KIC as substrate) came to 24.0 ± 2.0 µM; in series [5] (with KIV as substrate), 22.0 ± 2.0 µM; in series [5] (with KMV as substrate), 21.0 ± 3.0 µM. In addition, the kcat in series [5] (with KIC as substrate) was 0.337 ± 0.025 s⁻¹; in series [5] (with KIV as substrate) it was 0.417 ± 0.0333 s⁻¹.

B2: BCKDC (Homo sapiens) (protein)
chain 1: SSLDDKPQFPGASAEFIDKLEFIQPNVISGIPIYRVMDRQGQIINPSEDPHLPKEKVLKLYKSMTLLNTMDRILYESQRQGRISFYMTNYGEEGTHVGSAAALDNTDLVFGQYREAGVLMYRDYPLELFMAQCYGNISDLGKGRQMPVHYGCKERHFVTISSPLATQIPQAVGAAYAAKRANANRVVICYFGEGAASEGDAHAGFNFAATLECPIIFFCRNNGYAISTPTSEQYRGDGIAARGPGYGIMSIRVDGNDVFAVYNATKEARRRAVAENQPFLIEAMTYRIGHHSTSDDSSAYRSVDEVNYWDKQDHPISRLRHYLLSQGWWDEEQEKAWRKQSRRKVMEAFEQAERKPKPNPNLLFSDVYQEMPAQLRKQQESLARHLQTYGEHYPLDHFDK
chain 2: VAHFTFQPDPEPREYGQTQKMNLFQSVTSALDNSLAKDPTAVIFGEDVAFGGVFRCTVGLRDKYGKDRVFNTPLCEQGIVGFGIGIAVTGATAIAEIQFADYIFPAFDQIVNEAAKYRYRSGDLFNCGSLTIRSPWGCVGHGALYHSQSPEAFFAHCPGIKVVIPRSPFQAKGLLLSCIEDKNPCIFFEPKILYRAAAEEVPIEPYNIPLSQAEVIQEGSDVTLVAWGTQVHVIREVASMAKEKLGVSCEVIDLRTIIPWDVDTICKSVIKTGRLLISHEAPLTGGFASEISSTVQEECFLNLEAPISRVCGYDTPFPHIFEPFYIPDKWKCYDALRKMINY
Regarding B2, the Km in series [6] (substrate α-keto-β-methylvalerate (KMV)) is 50.0 ± 3.0 µM; in series [6] (setting [7]), 41.0 ± 5.0 µM; in series [6] (setting [8]), 40.0 ± 5.0 µM. Further, the results for the kcat in series [6] (setting [7]) and in series [6] (setting [8]) were 4.25 ± 0.167 s⁻¹ and 5.15 ± 0.25 s⁻¹, respectively.
